The source made the active and inactive calls. The rule behind the calls is not given here.
Experiments:
[1] = Selectivity index, ratio of CC50 for MDCK cells to IC50 for Influenza A virus (A/Puerto Rico/8/34 (H1N1)) infected in MDCK cells; format: toxicity, cell-based; conditions: dog, read-out: Ratio CC50/IC50
[2] = Cytotoxicity against MDCK cells assessed as cell death incubated for 48 hrs by MTT assay; format: cell-based, Canis lupus familiaris; conditions: dog
Influenza A virus [3] = experiment: Antiviral activity against Influenza A virus (A/Puerto Rico/8/34 (H1N1) infected in MDCK cells assessed as decrease in viral titer preincubated for 1 hr followed by viral infection and cultivated for 48 hrs followed by supernatant transferred to chicken erythrocyte for 1 hr followed by measuring ability to cause positive hemagglutination; format: functional, organism-based; conditions: A/Puerto Rico/8/1934(H1N1)
Influenza A virus [4] = experiment: Antiviral activity against Influenza A virus (A/Puerto Rico/8/34(H1N1)) pdm09 infected in MDCK cells assessed as inhibition of virus infection at early stage by time of addition experiment; format: functional, organism-based; conditions: A/Puerto Rico/8/1934(H1N1)
[5] = test system: Influenza A virus (A/Puerto Rico/8/1934(H1N1)); experiment: Inhibition of Hemagglutinin in Influenza A virus (A/Puerto Rico/8/34(H1N1)); conditions: dose 0-300 µg/ml

| SMILES | selectivity ratio [1] | CC50 at 48 h [2] [µM] | IC50 (Influenza A virus [3]) [µM] | Activity (Influenza A virus [4]) | inhibition [5] |
| --- | --- | --- | --- | --- | --- |
| C[C@@H]1CC[C@@H]2[C@@H](C1)O[C@@H](c1ccccc1O)CC2(C)O (some centres undefined) | 1 | > 1090 | > 1090 | – | – |
| COc1ccc([C@H]2CC(C)(O)[C@@H]3CC[C@@H](C)C[C@H]3O2)c(OC)c1OC (some centres undefined) | 1 | > 857 | 717 | – | – |
| COc1cc(OC)c([C@H]2CC(C)(F)[C@@H]3CC[C@@H](C)C[C@H]3O2)c(OC)c1 (some centres undefined) | 35 | 851 | 24 | Active | Dose-dependent effect |
| C[C@@H]1CC[C@@H]2[C@@H](C1)O[C@@H](c1ccc([N+](=O)[O-])cc1)CC2(C)O (some centres undefined) | 3 | > 982 | 393 | – | – |
| CC(N)C12CC3CC(CC(C3)C1)C2 (centres undefined) [RIMANTADINE] | 5 | 326 | 69 | – | – |
| COc1ccc([C@H]2CC(C)(F)[C@@H]3CC[C@@H](C)C[C@H]3O2)c(OC)c1 (some centres undefined) | 2 | 379 | 155 | – | – |
| COc1ccc([C@H]2CC(C)(O)[C@@H]3CC[C@@H](C)C[C@H]3O2)c(OC)c1 (some centres undefined) | 12 | > 937 | 78 | – | – |
| C[C@@H]1CC[C@@H]2[C@@H](C1)O[C@@H](c1ccc(Br)cc1)CC2(C)O (some centres undefined) | 1 | 132 | > 89 | – | – |
| NC(=O)c1ncn([C@@H]2O[C@H](CO)[C@@H](O)[C@H]2O)n1 [RIBAVIRIN] | 61 | > 2130 | 35 | – | – |
| COc1ccc([C@H]2CC(C)(O)[C@@H]3CC[C@@H](C)C[C@H]3O2)cc1OC (some centres undefined) | 3 | > 937 | 344 | – | – |
| COc1cc([C@H]2CC(C)(O)[C@@H]3CC[C@@H](C)C[C@H]3O2)cc(OC)c1O (some centres undefined) | 2 | 473 | 235 | – | – |
| C[C@@H]1CC[C@@H]2[C@@H](C1)O[C@@H](c1ccc(O)cc1)CC2(C)F (some centres undefined) | 3 | 95 | > 36 | – | – |
| C[C@@H]1CC[C@@H]2[C@@H](C1)O[C@@H](c1ccc(Br)cc1)CC2(C)F (some centres undefined) | 2 | > 882 | 391 | – | – |
| COc1ccc([C@H]2CC(C)(O)[C@@H]3CC[C@@H](C)C[C@H]3O2)cc1 (some centres undefined) | 24 | 689 | 29 | – | – |
| COc1cccc([C@H]2CC(C)(O)[C@@H]3CC[C@@H](C)C[C@H]3O2)c1OC (some centres undefined) | 1 | > 937 | > 937 | – | – |
| C[C@@H]1CC[C@@H]2[C@@H](C1)O[C@@H](c1ccc(Cl)cc1)CC2(C)F (some centres undefined) | 2 | 57 | 29 | – | – |
| COc1cc(OC)c([C@H]2CC(C)(F)[C@@H]3CC[C@@H](C)C[C@H]3O2)cc1OC (some centres undefined) | 13 | 78 | 6 | – | – |
| COc1ccc(OC)c([C@H]2CC(C)(O)[C@@H]3CC[C@@H](C)C[C@H]3O2)c1 (some centres undefined) | 2 | 512 | > 312 | – | – |
| COc1ccc(OC)c([C@H]2CC(C)(F)[C@@H]3CC[C@@H](C)C[C@H]3O2)c1 (some centres undefined) | 1 | 37 | > 31 | – | – |
| C[C@@H]1CC[C@@H]2[C@@H](C1)O[C@@H](c1ccccc1)CC2(C)F (some centres undefined) | 2 | 65 | > 38 | – | – |

| SMILES | selectivity ratio [1] | CC50 at 48 h [2] [µM] | IC50 (Influenza A virus [3]) [µM] | Activity (Influenza A virus [4]) | inhibition [5] |
| --- | --- | --- | --- | --- | --- |
| COc1cc([C@H]2CC(C)(F)[C@@H]3CC[C@@H](C)C[C@H]3O2)cc(OC)c1O (some centres undefined) | 3 | 158 | 59 | – | – |
| COc1ccc([C@H]2CC(C)(O)[C@@H]3CC[C@@H](C)C[C@H]3O2)cc1O (some centres undefined) | 6 | 738 | 118 | – | – |
| COc1ccc([C@H]2CC(C)(F)[C@@H]3CC[C@@H](C)C[C@H]3O2)cc1O (some centres undefined) | 4 | 136 | > 32 | – | – |
| COc1cc([C@H]2CC(C)(F)[C@@H]3CC[C@@H](C)C[C@H]3O2)ccc1O (some centres undefined) | 2 | 642 | > 324 | – | – |
| C[C@@H]1CC[C@@H]2[C@@H](C1)O[C@@H](c1ccccc1O)CC2(C)F (some centres undefined) | 1 | 44 | > 36 | – | – |
| COc1cc(OC)c([C@H]2CC(C)(O)[C@@H]3CC[C@@H](C)C[C@H]3O2)cc1OC (some centres undefined) | 1 | > 857 | > 857 | – | – |
| COc1ccc([C@H]2CC(C)(F)[C@@H]3CC[C@@H](C)C[C@H]3O2)c(OC)c1OC (some centres undefined) | 22 | 133 | 6 | – | – |
| COc1ccc([C@H]2CC(C)(F)[C@@H]3CC[C@@H](C)C[C@H]3O2)cc1 (some centres undefined) | 2 | 171 | > 103 | – | – |
| C[C@@H]1CC[C@@H]2[C@@H](C1)O[C@@H](c1ccc(O)cc1)CC2(C)O (some centres undefined) | 1 | 127 | 87 | – | – |
| C[C@@H]1CC[C@@H]2[C@@H](C1)O[C@@H](c1ccccc1)CC2(C)O (some centres undefined) | 6 | 580 | 100 | – | – |
| COc1cc(OC)c([C@H]2CC(C)(O)[C@@H]3CC[C@@H](C)C[C@H]3O2)c(OC)c1 (some centres undefined) | 45 | 856 | 19 | Active | Dose-dependent effect |
| C[C@@H]1CC[C@@H]2[C@@H](C1)O[C@@H](c1ccc([N+](=O)[O-])cc1)CC2(C)F (some centres undefined) | 1 | > 976 | > 976 | – | – |
| COc1cc([C@H]2CC(C)(O)[C@@H]3CC[C@@H](C)C[C@H]3O2)cc(OC)c1OC (some centres undefined) | 1 | 405 | > 285 | – | – |
| C[C@@H]1CC[C@@H]2[C@@H](C1)O[C@@H](c1ccc(Cl)cc1)CC2(C)O (some centres undefined) | 2 | 62 | > 37 | – | – |
| C[C@@H]1CC[C@@H]2[C@@H](C1)O[C@@H](c1ccc(F)cc1)CC2(C)O (some centres undefined) | 2 | 65 | > 36 | – | – |
| COc1cc([C@H]2CC(C)(F)[C@@H]3CC[C@@H](C)C[C@H]3O2)cc(OC)c1OC (some centres undefined) | 3 | 568 | 199 | – | – |
| COc1cc([C@H]2CC(C)(O)[C@@H]3CC[C@@H](C)C[C@H]3O2)ccc1O (some centres undefined) | 1 | 411 | > 327 | – | – |
| COc1ccc([C@H]2CC(C)(F)[C@@H]3CC[C@@H](C)C[C@H]3O2)cc1OC (some centres undefined) | 2 | 20 | > 9 | – | – |
| C[C@@H]1CC[C@@H]2[C@@H](C1)O[C@@H](c1ccc(F)cc1)CC2(C)F (some centres undefined) | 2 | 68 | > 36 | – | – |
| COc1cccc([C@H]2CC(C)(F)[C@@H]3CC[C@@H](C)C[C@H]3O2)c1OC (some centres undefined) | 4 | 180 | 43 | – | – |

Source: ChEMBL document CHEMBL4673281, “Influenza antiviral activity of F- and OH-containing isopulegol-derived octahydro-2H-chromenes” (Bioorg Med Chem Lett, 2021)
